{"source": "patent US9359377B2", "about": "“Substituted imidazo[1,2-a]imidazo[4′,5′:4,5]pyrrolo[1,2-d]pyrazines for treating respiratory syncytial virus infections” (Biota Scientific Management Pty Ltd., priority 2011, dated 2016)", "note": "pEC50: −log10 of the molar value."}
{"tested_on": "RSV A2", "test": "RSV antiviral cytopathic effect (CPE) assay in HEp2 cells, MTT readout", "assay_type": "cell-based, respiratory syncytial virus", "details": "HEp2 cells infected with RSV A2, moi ~0.01, 5 days, inhibition of CPE by 50%; read-out: Activity Range (RSV A2 EC50 mean values)", "protocol": "(§1) RSV Antiviral Assay Protocol\n(§2) Compounds of the invention were tested for their antiviral activity against respiratory syncytial virus. Cytopathic effect (CPE) assays were performed essentially as described in the literature (see, for example, Watanabe et al, 1994, J. Virological Methods, 48:257). Serial dilutions of the test compounds were made in 96 well plates. HEp2 cells (1.0×10^4 cells/well) were infected with RSV at a low multiplicity of infection (e.g. RSV A2 at an moi of ˜0.01) and added to plates to assess antiviral activity. Uninfected HEp2 cells were used to assess compound cytotoxicity. Assays were incubated for 5 days at 37° C. in a 5% CO2 atmosphere. The extent of CPE was determined via metabolism of the vital dye 3-(4,5-dimethylthiaxol-2-yl)-2,5-diphenyltetrazolium bromide (MTT). MTT (1 mg/ml) was added to each well and plates incubated for 2 hours incubation at 37° C. Wells were aspirated, iso-propanol (200 μL) was added and absorbance values read at 540/650 nm. Compound concentrations that inhibited CPE by 50% (EC50) and developed cytotoxicity (CC50) were calculated using non-linear regression analysis.\n(§3) In the inventors' experience, replicate EC50 values usually fall within three standard deviations of the mean."}
{"molecule": "11a-(4-fluorophenyl)-1-(furan-2-ylacetyl)-2,3,11,11a-tetrahydro-1H,5H-imidazo[1,2-a]thieno[3′,2′:4,5]pyrrolo[1,2-d]pyrazin-5-one [Compound 22]", "pEC50": "< 5.00"}
{"tested_on": "RSV A2", "test": "RSV antiviral cytopathic effect (CPE) assay in HEp2 cells, MTT readout", "assay_type": "cell-based, respiratory syncytial virus", "details": "human respiratory syncytial virus, HEp-2, 120 h; HEp2 cells infected with RSV A2, moi ~0.01, 5 days, inhibition of CPE by 50%; read-out: Activity Range (RSV A2 EC50 mean values)", "protocol": "as §1, §2, §3"}
{"molecule": "COc1ccc(C23Cn4c(cc5ccsc54)C(=O)N2CCN3C(=O)c2conc2C)cc1", "note": "(stereo not drawn) [Compound 1, 11a-(4-methoxyphenyl)-1-[(3-methyl-1,2-oxazol-4-yl)carbonyl]-2,3,11,11a-tetrahydro-1H,5H-imidazo[1,2-a]thieno[3′,2′:4,5]pyrrolo[1,2-d]pyrazin-5-one]", "pEC50": "≥ 7.31"}
{"molecule": "COc1ccc(C23Cn4c(cc5[nH]c(C)nc54)C(=O)N2CCN3C(=O)c2conc2C)cc1", "note": "(stereo not drawn) [Compound 2, 5a-(4-methoxyphenyl)-2-methyl-6-[(3-methyl-1,2-oxazol-4-yl)carbonyl]-5a,6,7,8-tetrahydro-5H-imidazo[1,2-a]imidazo[4′,5′:4,5]pyrrolo[1,2-d]pyrazin-10(1H)-one]", "pEC50": "≥ 7.31"}
{"molecule": "COc1ccc(C23Cn4c(cc5occc54)C(=O)N2CCN3C(=O)c2conc2C)cc1", "note": "(stereo not drawn) [Compound 3, 5a-(4-methoxyphenyl)-6-[(3-methyl-1,2-oxazol-4-yl)carbonyl]-5a,6,7,8-tetrahydro-5H,10H-furo[2′,3′:4,5]pyrrolo[1,2-a]imidazo[1,2-d]pyrazin-10-one]", "pEC50": "7.00 to 7.30"}
{"molecule": "COc1ccc(C23Cn4c(cc5ccccc54)C(=O)N2CCN3C(=O)c2conc2C)cc1", "note": "(stereo not drawn) [Compound 4, 12a-(4-methoxyphenyl)-1-[(3-methyl-1,2-oxazol-4-yl)carbonyl]-2,3,12,12a-tetrahydro-1H,5H-imidazo[1′,2′:4,5]pyrazino[1,2-a]indol-5-one]", "pEC50": "≥ 7.31"}
{"molecule": "COc1ccc(C23Cn4c(cc5sccc54)C(=O)N2CCN3C(=O)c2conc2C)cc1", "note": "(stereo not drawn) [Compound 5, 5a-(4-methoxyphenyl)-6-[(3-methyl-1,2-oxazol-4-yl)carbonyl]-5a,6,7,8-tetrahydro-5H,10H-imidazo[1,2-a]thieno[2′,3′:4,5]pyrrolo[1,2-d]pyrazin-10-one]", "pEC50": "6.30 to 7.00"}
{"molecule": "Cc1nocc1C(=O)N1CCN2C(=O)c3cc4ccsc4n3CC12c1ccc(F)cc1", "note": "(stereo not drawn) [Compound 6, 11a-(4-fluorophenyl)-1-[(3-methyl-1,2-oxazol-4-yl)carbonyl]-2,3,11,11a-tetrahydro-1H,5H-imidazo[1,2-a]thieno[3′,2′:4,5]pyrrolo[1,2-d]pyrazin-5-one]", "pEC50": "≥ 7.31"}
{"molecule": "Cc1ccc(C23Cn4c(cc5ccsc54)C(=O)N2CCN3C(=O)c2conc2C)cc1", "note": "(stereo not drawn) [Compound 7, 1-[(3-methyl-1,2-oxazol-4-yl)carbonyl]-11a-(4-methylphenyl)-2,3,11,11 a-tetrahydro-1H,5H-imidazo[1,2-a]thieno[3′,2′:4,5]pyrrolo[1,2-d]pyrazin-5-one]", "pEC50": "≥ 7.31"}
{"molecule": "COc1ccc(C23Cn4c(cc5cccnc54)C(=O)N2CCN3C(=O)c2conc2C)cc1", "note": "(stereo not drawn) [Compound 8, 12a-(4-methoxyphenyl)-1-[(3-methyl-1,2-oxazol-4-yl)carbonyl]-2,3,12,12a-tetrahydro-1H,5H-imidazo[1,2-a]pyrido[3′,2′:4,5]pyrrolo[1,2-d]pyrazin-5-one]", "pEC50": "≥ 7.31"}
{"molecule": "COc1ccc(C23Cn4c(cc5ncccc54)C(=O)N2CCN3C(=O)c2conc2C)cc1", "note": "(stereo not drawn) [Compound 9, 12a-(4-methoxyphenyl)-1-[(3-methyl-1,2-oxazol-4-yl)carbonyl]-2,3,12,12a-tetrahydro-1H,5H-imidazo[1,2-a]pyrido[2′,3′:4,5]pyrrolo[1,2-d]pyrazin-5-one]", "pEC50": "6.30 to 7.00"}
{"molecule": "Cc1ccc(C23Cn4c(cc5cccnc54)C(=O)N2CCN3C(=O)c2conc2C)cc1", "note": "(stereo not drawn) [Compound 10, 1-[(3-methyl-1,2-oxazol-4-yl)carbonyl]-12a-(4-methylphenyl)-2,3,12,12a-tetrahydro-1H,5H-imidazo[1,2-a]pyrido[3′,2′:4,5]pyrrolo[1,2-d]pyrazin-5-one]", "pEC50": "≥ 7.31"}
{"molecule": "Cc1nocc1C(=O)N1CCN2C(=O)c3cc4cccnc4n3CC12c1ccc(F)cc1", "note": "(stereo not drawn) [Compound 11, 12a-(4-fluorophenyl)-1-[(3-methyl-1,2-oxazol-4-yl)carbonyl]-2,3,12,12a-tetrahydro-1H,5H-imidazo[1,2-a]pyrido[3′,2′:4,5]pyrrolo[1,2-d]pyrazin-5-one]", "pEC50": "≥ 7.31"}
{"molecule": "Cc1nocc1C(=O)N1CCN2C(=O)c3cc4ncccc4n3CC12c1ccc(F)cc1", "note": "(stereo not drawn) [Compound 12, 12a-(4-fluorophenyl)-1-[(3-methyl-1,2-oxazol-4-yl)carbonyl]-2,3,12,12a-tetrahydro-1H,5H-imidazo[1,2-a]pyrido[2′,3′:4,5]pyrrolo[1,2-d]pyrazin-5-one]", "pEC50": "6.30 to 7.00"}
{"molecule": "Cc1ccc(C23Cn4c(cc5ccsc54)C(=O)N2CCN3C(=O)c2conc2C)cn1", "note": "(stereo not drawn) [Compound 13, 1-[(3-methyl-1,2-oxazol-4-yl)carbonyl]-11a-(6-methylpyridin-3-yl)-2,3,11,11a-tetrahydro-1H,5H-imidazo[1,2-a]thieno[3′,2′:4,5]pyrrolo[1,2-d]pyrazin-5-one]", "pEC50": "≥ 7.31"}
{"molecule": "O=C1c2cc3ccsc3n2CC2(c3ccc(F)cc3)N1CCN2C(=O)C1CCCCC1", "note": "(stereo not drawn) [Compound 14, 1-(cyclohexylcarbonyl)-11a-(4-fluorophenyl)-2,3,11,11a-tetrahydro-1H,5H-imidazo[1,2-a]thieno[3′,2′:4,5]pyrrolo[1,2-d]pyrazin-5-one]", "pEC50": "< 5.00"}
{"molecule": "O=C(c1ccco1)N1CCN2C(=O)c3cc4ccsc4n3CC12c1ccc(F)cc1", "note": "(stereo not drawn) [Compound 15, 11a-(4-fluorophenyl)-1-(furan-2-ylcarbonyl)-2,3,11,11a-tetrahydro-1H,5H-imidazo[1,2-a]thieno[3′,2′:4,5]pyrrolo[1,2-d]pyrazin-5-one]", "pEC50": "< 5.00"}
{"molecule": "O=C1c2cc3ccsc3n2CC2(c3ccc(F)cc3)N1CCN2C(=O)C1CC1", "note": "(stereo not drawn) [Compound 16, 1-(cyclopropylcarbonyl)-11a-(4-fluorophenyl)-2,3,11,11a-tetrahydro-1H,5H-imidazo[1,2-a]thieno[3′,2′:4,5]pyrrolo[1,2-d]pyrazin-5-one]", "pEC50": "< 5.00"}
{"molecule": "CC(C)C(=O)N1CCN2C(=O)c3cc4ccsc4n3CC21c1ccc(F)cc1", "note": "(stereo not drawn) [Compound 17, 11a-(4-fluorophenyl)-1-(2-methylpropanoyl)-2,3,11,11a-tetrahydro-1H,5H-imidazo[1,2-a]thieno[3′,2′:4,5]pyrrolo[1,2-d]pyrazin-5-one]", "pEC50": "< 5.00"}
{"molecule": "Cc1cc(C(=O)N2CCN3C(=O)c4cc5ccsc5n4CC23c2ccc(F)cc2)no1", "note": "(stereo not drawn) [Compound 18, 11a-(4-fluorophenyl)-1-[(5-methyl-1,2-oxazol-3-yl)carbonyl]-2,3,11,11a-tetrahydro-1H,5H-imidazo[1,2-a]thieno[3′,2′:4,5]pyrrolo[1,2-d]pyrazin-5-one]", "pEC50": "< 5.00"}
{"molecule": "O=C(CC1CCCCC1)N1CCN2C(=O)c3cc4ccsc4n3CC12c1ccc(F)cc1", "note": "(stereo not drawn) [Compound 19, l-(cyclohexylacetyl)-11a-(4-fluorophenyl)-2,3,11,11a-tetrahydro-1H,5H-imidazo[1,2-a]thieno[3′,2′:4,5]pyrrolo[1,2-d]pyrazin-5-one]", "pEC50": "< 5.00"}
{"molecule": "Cn1nc(C(C)(C)C)cc1C(=O)N1CCN2C(=O)c3cc4ccsc4n3CC12c1ccc(F)cc1", "note": "(stereo not drawn) [Compound 20, 1-[(3-tert-butyl-1-methyl-1H-pyrazol-5-yl)carbonyl]-11a-(4-fluorophenyl)-2,3,11,11a-tetrahydro-1H,5H-imidazo[1,2-a]thieno[3′,2′:4,5]pyrrolo[1,2-d]pyrazin-5-one]", "pEC50": "< 5.00"}
{"molecule": "Cc1ocnc1C(=O)N1CCN2C(=O)c3cc4ccsc4n3CC12c1ccc(F)cc1", "note": "(stereo not drawn) [Compound 21, 11a-(4-fluorophenyl)-1-[(5-methyl-1,3-oxazol-4-yl)carbonyl]-2,3,11,11a-tetrahydro-1H,5H-imidazo[1,2-a]thieno[3′,2′:4,5]pyrrolo[1,2-d]pyrazin-5-one]", "pEC50": "6.30 to 7.00"}
{"molecule": "O=C(NCc1ccccc1)N1CCN2C(=O)c3cc4ccsc4n3CC12c1ccc(F)cc1", "note": "(stereo not drawn) [Compound 23, N-benzyl-11a-(4-fluorophenyl)-5-oxo-2,3,11,11a-tetrahydro-1H,5H-imidazo[1,2-a]thieno[3′,2′:4,5]pyrrolo[1,2-d]pyrazine-1-carboxamide]", "pEC50": "< 5.00"}
{"molecule": "O=C(NC1CCCCC1)N1CCN2C(=O)c3cc4ccsc4n3CC12c1ccc(F)cc1", "note": "(stereo not drawn) [Compound 24, N-cyclohexyl-11a-(4-fluorophenyl)-5-oxo-2,3,11,11a-tetrahydro-1H,5H-imidazo[1,2-a]thieno[3′,2′:4,5]pyrrolo[1,2-d]pyrazine-1-carboxamide]", "pEC50": "< 5.00"}
{"molecule": "O=C1c2cc3ccsc3n2CC2(c3ccc(F)cc3)N1CCN2S(=O)(=O)c1ccccc1", "note": "(stereo not drawn) [Compound 25, 11a-(4-fluorophenyl)-1-(phenylsulfonyl)-2,3,11,11a-tetrahydro-1H,5H-imidazo[1,2-a]thieno[3′,2′:4,5]pyrrolo[1,2-d]pyrazin-5-one]", "pEC50": "< 5.00"}
{"molecule": "O=C1c2cc3ccsc3n2CC2(c3ccc(F)cc3)N1CCN2S(=O)(=O)Cc1ccccc1", "note": "(stereo not drawn) [Compound 26, 1-(benzylsulfonyl)-11a-(4-fluorophenyl)-2,3,11,11a-tetrahydro-1H,5H-imidazo[1,2-a]thieno[3′,2′:4,5]pyrrolo[1,2-d]pyrazin-5-one]", "pEC50": "< 5.00"}
{"molecule": "O=C1c2cc3ccsc3n2CC2(c3ccc(F)cc3)N1CCN2S(=O)(=O)c1ccc([N+](=O)[O-])cc1", "note": "(stereo not drawn) [Compound 27, 11a-(4-fluorophenyl)-1-[(4-nitrophenyl)sulfonyl]-2,3,11,11a-tetrahydro-1H,5H-imidazo[1,2-a]thieno[3′,2′:4,5]pyrrolo[1,2-d]pyrazin-5-one]", "pEC50": "5.00 to 6.30"}
